Test results as given in PubChem BioAssay AID248 (DTP/NCI, 2004).
Toxic doses and inconclusive results are not listed. No stated cut-off is given here; in the data, active means T/C of 150% or more; inactive means T/C below 125%. Peptide text beside a SMILES is read from it.

System: L1210 leukemia ip in BDF1 mice, survival T/C
Assay: NCI In Vivo Anticancer Drug Screen. Data for tumor model L1210 Leukemia (intraperitoneal) in B6D2F1 (BDF1) mice
Details: endpoint: mean survival time, higher = longer survival
Method in brief: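 Value reflects the ratio of survival in compound-treated mice to survival in vehicle-treated controls, with both groups carrying the same transplanted tumor.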

[1] = dose: 50.0 mg/kg/injection, schedule: Q01DX001 (ip), vehicle: saline
[2] = dose: 100.0 mg/kg/injection, schedule: Q01DX001 (ip), vehicle: saline
[3] = dose: 100.0 mg/kg/injection, schedule: Q01DX009 (ip), vehicle: Klucel (hydroxypropylcellulose) (HPC)
[4] = dose: 200.0 mg/kg/injection, schedule: Q01DX001 (ip), vehicle: saline
[5] = dose: 200.0 mg/kg/injection, schedule: Q01DX009 (ip), vehicle: Klucel (hydroxypropylcellulose) (HPC)
[6] = dose: 100.0 mg/kg/injection, schedule: Q01DX005 (ip), vehicle: saline
[7] = dose: 200.0 mg/kg/injection, schedule: Q01DX005 (ip), vehicle: saline
[8] = dose: 400.0 mg/kg/injection, schedule: Q01DX009 (ip), vehicle: Klucel (hydroxypropylcellulose) (HPC)
[9] = dose: 100.0 mg/kg/injection, schedule: Q01DX009 (ip), vehicle: saline with Tween-80
[10] = dose: 200.0 mg/kg/injection, schedule: Q01DX009 (ip), vehicle: saline with Tween-80
[11] = dose: 400.0 mg/kg/injection, schedule: Q01DX009 (ip), vehicle: saline with Tween-80
[12] = dose: 100.0 mg/kg/injection, schedule: Q01DX001 (ip), vehicle: carboxymethylcellulose (CMC)
[13] = dose: 200.0 mg/kg/injection, schedule: Q01DX001 (ip), vehicle: carboxymethylcellulose (CMC)
[14] = dose: 400.0 mg/kg/injection, schedule: Q01DX001 (ip), vehicle: carboxymethylcellulose (CMC)
[15] = dose: 25.0 mg/kg/injection, schedule: Q04DX003 (ip), vehicle: saline
[16] = dose: 50.0 mg/kg/injection, schedule: Q04DX003 (ip), vehicle: saline
[17] = dose: 100.0 mg/kg/injection, schedule: Q01DX001 (ip), vehicle: Klucel (hydroxypropylcellulose) (HPC)
[18] = dose: 200.0 mg/kg/injection, schedule: Q01DX001 (ip), vehicle: Klucel (hydroxypropylcellulose) (HPC)

Measured: T/C

C/C=C/CC1=C(O)c2ccccc2C(=O)C1=O
inactive: dose: 100.0 mg/kg/injection, schedule: Q01DX001 (ip), vehicle: water 98 % of control

CC(C)(C)N=Cc1ccccc1O.CC(C)(C)N=Cc1ccccc1O.[Cu]
inactive: dose: 6.25 mg/kg/injection, schedule: Q04DX003 (ip), vehicle: saline with Tween-80 94 % of control | dose: 12.5 mg/kg/injection, schedule: Q04DX003 (ip), vehicle: saline with Tween-80 104 % of control | dose: 25.0 mg/kg/injection, schedule: Q04DX003 (ip), vehicle: saline with Tween-80 96 % of control

COc1cc(N(CCCl)CCCl)ccc1/C=N\NC(=O)c1cccnc1
inactive: dose: 25.0 mg/kg/injection, schedule: Q01DX009 (ip), vehicle: Klucel (hydroxypropylcellulose) (HPC) 87 % of control | [1] 105 % of control | dose: 50.0 mg/kg/injection, schedule: Q01DX009 (ip), vehicle: Klucel (hydroxypropylcellulose) (HPC) 88 % of control | [2] 105 % of control | [3] 90 % of control | [4] 100 % of control | [5] 96 % of control | dose: 400.0 mg/kg/injection, schedule: Q01DX001 (ip), vehicle: saline 97 % of control

Cc1ccc(S(=O)(=O)OCC2OC(n3cnc4c(N)ncnc43)C(OS(=O)(=O)c3ccc(C)cc3)C2N=[N+]=[N-])cc1 (configuration not stated)
inactive: [6] 106 % of control | [7] 92 % of control

Cc1ccc(C)c(CNC(=O)Nc2ccccc2Cl)c1
inactive: [3] 97 % of control | [5] 101 % of control

COC(C)c1ccccc1 (configuration not stated)
inactive: dose: 103.0 mg/kg/injection, schedule: Q01DX Z (ip), vehicle: methylcellulose (MC) 91 % of control | dose: 155.0 mg/kg/injection, schedule: Q01DX Z (ip), vehicle: methylcellulose (MC) 96 % of control | dose: 233.0 mg/kg/injection, schedule: Q01DX Z (ip), vehicle: methylcellulose (MC) 96 % of control | dose: 350.0 mg/kg/injection, schedule: Q01DX Z (ip), vehicle: methylcellulose (MC) 102 % of control

CC(=O)Nc1cc(C)c(C)cc1[N+](=O)[O-]
inactive: [3] 102 % of control | dose: 100.0 mg/kg/injection, schedule: Q04DX003 (ip), vehicle: Klucel (hydroxypropylcellulose) (HPC) 96 % of control | [5] 100 % of control | dose: 200.0 mg/kg/injection, schedule: Q04DX003 (ip), vehicle: Klucel (hydroxypropylcellulose) (HPC) 102 % of control | [8] 105 % of control | dose: 400.0 mg/kg/injection, schedule: Q04DX003 (ip), vehicle: Klucel (hydroxypropylcellulose) (HPC) 103 % of control

COC(=O)C(CSCSC)NC(=O)/C=C/c1ccccc1C (configuration not stated)
inactive: [9] 101 % of control | dose: 100.0 mg/kg/injection, schedule: Q04DX003 (ip), vehicle: saline with Tween-80 95 % of control | [10] 101 % of control | dose: 200.0 mg/kg/injection, schedule: Q04DX003 (ip), vehicle: saline with Tween-80 93 % of control | [11] 113 % of control | dose: 400.0 mg/kg/injection, schedule: Q04DX003 (ip), vehicle: saline with Tween-80 97 % of control

CCS(=O)(=O)C(c1ccccc1)S(=O)(=O)CC
inactive: [12] 95 % of control | [13] 87 % of control | [14] 98 % of control

Clc1ccc(C2SCCS2)c(Cl)c1
inactive: [3] 105 % of control | [5] 108 % of control | [8] 124 % of control

C=C1C(=O)OC2CC/C=C\CCC12 (configuration not stated)
inactive: dose: 50.0 mg/kg/injection, schedule: Q01DX009 (ip), vehicle: saline 95 % of control | dose: 100.0 mg/kg/injection, schedule: Q01DX009 (ip), vehicle: saline 103 % of control | dose: 200.0 mg/kg/injection, schedule: Q01DX009 (ip), vehicle: saline 95 % of control

Cn1cnc([N+](=O)[O-])c1Sc1c[nH]c(=O)[nH]c1=O
inactive: [15] 107 % of control | [16] 96 % of control | dose: 100.0 mg/kg/injection, schedule: Q04DX003 (ip), vehicle: saline 104 % of control | dose: 200.0 mg/kg/injection, schedule: Q04DX003 (ip), vehicle: saline 93 % of control | dose: 400.0 mg/kg/injection, schedule: Q04DX003 (ip), vehicle: saline 94 % of control

O=C(OCc1ccccc1CN1CCCC1)c1cccc(Cl)c1
inactive: [17] 102 % of control | [18] 117 % of control

Cc1ccc(C)c(Nc2cc(=O)[nH]c(=O)[nH]2)c1
inactive: dose: 100.0 mg/kg/injection, schedule: Q04DX003 (ip), vehicle: gum acacia 93 % of control | dose: 200.0 mg/kg/injection, schedule: Q04DX003 (ip), vehicle: gum acacia 91 % of control | dose: 400.0 mg/kg/injection, schedule: Q04DX003 (ip), vehicle: gum acacia 87 % of control

O=C(N/N=C\c1ccc(N(CCCl)CCCl)cc1)c1ccccn1
inactive: dose: 50.0 mg/kg/injection, schedule: Q01DX001 (ip), vehicle: carboxymethylcellulose (CMC) 108 % of control | [12] 108 % of control | [13] 103 % of control | [14] 100 % of control

Nc1nc(N)c(-c2ccc(Cl)cc2)c(COc2cccc(NC(=O)c3ccc([N+](=O)[O-])cc3)c2)n1
inactive: [17] 104 % of control | [18] 97 % of control | dose: 400.0 mg/kg/injection, schedule: Q01DX001 (ip), vehicle: Klucel (hydroxypropylcellulose) (HPC) 91 % of control

CC(=O)OC(CC/C(C)=C/COC1CCCCO1)C(C)(C)O (configuration not stated)
inactive: dose: 100.0 mg/kg/injection, schedule: Q01DX001 (ip), vehicle: saline with Tween-80 102 % of control | [9] 95 % of control | dose: 200.0 mg/kg/injection, schedule: Q01DX001 (ip), vehicle: saline with Tween-80 103 % of control | [10] 98 % of control | dose: 400.0 mg/kg/injection, schedule: Q01DX001 (ip), vehicle: saline with Tween-80 105 % of control | [11] 96 % of control

CC(C)OC(C)(C=O)OC(=O)Nc1cccc2ccccc12 (configuration not stated)
inactive: dose: 100.0 mg/kg/injection, schedule: Q04DX002 (sc), vehicle: olive oil, sesame oil, peanut oil 100 % of control | dose: 200.0 mg/kg/injection, schedule: Q04DX002 (sc), vehicle: olive oil, sesame oil, peanut oil 95 % of control | dose: 400.0 mg/kg/injection, schedule: Q04DX002 (sc), vehicle: olive oil, sesame oil, peanut oil 103 % of control

CC1(C)NC(=S)NC1=S
inactive: dose: 100.0 mg/kg/injection, schedule: Q01DX009 (ip), vehicle: alcohol 103 % of control | dose: 100.0 mg/kg/injection, schedule: Q04DX002 (ip), vehicle: Klucel (hydroxypropylcellulose) (HPC) 89 % of control | dose: 200.0 mg/kg/injection, schedule: Q01DX009 (ip), vehicle: alcohol 101 % of control | dose: 200.0 mg/kg/injection, schedule: Q04DX002 (ip), vehicle: Klucel (hydroxypropylcellulose) (HPC) 89 % of control | dose: 400.0 mg/kg/injection, schedule: Q04DX002 (ip), vehicle: Klucel (hydroxypropylcellulose) (HPC) 96 % of control

[Cl][Cd][Cl].c1ccc(N=P(c2ccccc2)(c2ccccc2)c2ccccc2)cc1
inactive: dose: 9.38 mg/kg/injection, schedule: Q01DX001 (ip), vehicle: other 105 % of control

C=C[Si](C)(C=C)C=C
inactive: [6] 94 % of control | [7] 97 % of control | dose: 400.0 mg/kg/injection, schedule: Q01DX005 (ip), vehicle: saline 94 % of control

CCc1cc(C)cc(CC)c1N
inactive: [3] 104 % of control | [5] 90 % of control

CC(NC(=O)C(CCC(=O)NCC(=O)O)NC(=O)C(N)Cc1ccc(O)cc1)C(=O)NCC(=O)NC(Cc1ccc(O)cc1)C(=O)NC(CCC(=O)NCC(=O)O)C(=O)NC(C)C(=O)NCC(=O)NCC(=O)O (configuration not stated) (H-YE(Gly)AGYE(Gly)AGG-OH; configuration not given here)
inactive: [1] 92 % of control | [2] 92 % of control | [4] 93 % of control

CCCCCCCCCCOC(=O)C[n+]1cccc(C(N)=O)c1
inactive: dose: 12.5 mg/kg/injection, schedule: Q04DX003 (ip), vehicle: saline 96 % of control | [15] 102 % of control | [16] 93 % of control

Cc1cccc(Nc2n[nH]c(=S)s2)c1
inactive: [3] 93 % of control | [5] 98 % of control | [8] 87 % of control
